Read-outs that look alike come from different tables or passages of the source.
Columns and labels:
[1] = pKa measurement of unformulated amine lipid (fluorescence, method of Jayaraman et al.); assay type: physicochemical; conditions: 100 μM in 0.1 M phosphate buffer pH 4.5-9.0
Experimental: The pKa of each amine lipid was determined according to the method in Jayaraman, et al. (Angewandte Chemie, 2012) with the following adaptations. […] Lipid was diluted to 100 μM in 0.1 M phosphate buffer (Boston Bioproducts) where the pH ranged from 4.5-9.0. Fluorescence intensity was measured using excitation and emission wavelengths of 321 nm and 448 nm.

[2] = LNP average particle size and polydispersity by dynamic light scattering (Malvern Zetasizer); assay type: physicochemical
From the text: The LNPs have a size of about 1 to about 1,000 nm, about 10 to about 500 nm, about 20 to about 500 nm, in a sub-embodiment about 50 to about 400 nm, in a sub-embodiment about 50 to about 300 nm, in a sub-embodiment about 50 to about 200 nm, and in a sub-embodiment about 50 to about 150 nm, and in another sub-embodiment about 60 to about 120 nm. Preferably, the LNPs have a size from about 60 nm to about 100 nm. The average sizes (diameters) of the fully formed LNP, may be measured by dynamic light scattering on a Malvern Zetasizer. The LNP sample is diluted in phosphate buffered saline (PBS) so that the count rate is approximately 200-400 kcps. The data is presented as a weighted average of the intensity measure.
The LNPs disclosed herein have a size (e.g. Z-average diameter) of about 1 to about 250 nm. In some embodiments, the LNPs have a size of about 10 to about 200 nm. In further embodiments, the LNPs have a size of about 20 to about 150 nm. In some embodiments, the LNPs have a size of about 50 to about 150 nm. In some embodiments, the LNPs have a size of about 50 to about 100 nm. In some embodiments, the LNPs have a size of about 50 to about 120 nm. In some embodiments, the LNPs have a size of about 60 to about 100 nm. In some embodiments, the LNPs have a size of about 75 to about 150 nm. In some embodiments, the LNPs have a size of about 75 to about 120 nm. In some embodiments, the LNPs have a size of about 75 to about 100 nm. Unless indicated otherwise, all sizes referred to herein are the average sizes (diameters) of the fully formed nanoparticles, as measured by dynamic light scattering on a Malvern Zetasizer. The nanoparticle sample is diluted in phosphate buffered saline (PBS) so that the count rate is approximately 200-400 kcps. The data is presented as a weighted-average of the intensity measure (Z-average diameter).
Dynamic Light Scattering (“DLS”) is used to characterize the polydispersity index (“pdi”) and size of the LNPs of the present disclosure. DLS measures the scattering of light that results from subjecting a sample to a light source. PDI, as determined from DLS measurements, represents the distribution of particle size (around the mean particle size) in a population, with a perfectly uniform population having a PDI of zero.
LNP compositions are analyzed for average particle size, polydispersity index (pdi), total RNA content, encapsulation efficiency of RNA, and zeta potential. LNP compositions may be further characterized by lipid analysis, AF4-MALS, NTA, and/or cryo-EM. Average particle size and polydispersity are measured by dynamic light scattering (DLS) using a Malvern Zetasizer DLS instrument. LNP samples were diluted with PBS buffer prior to being measured by DLS. Z-average diameter which is an intensity-based measurement of average particle size was reported along with number average diameter and pdi. A Malvern Zetasizer instrument is also used to measure the zeta potential of the LNP. Samples are diluted 1:17 (50 μL into 800 μL) in 0.1×PBS, pH 7.4 prior to measurement.

[3] = RNA encapsulation efficiency of LNP (Ribogreen fluorescence assay); assay type: physicochemical; conditions: N:P 6.0
Experimental: A fluorescence-based assay (Ribogreen®, ThermoFisher Scientific) is used to determine total RNA concentration and free RNA. Encapsulation efficiency is calculated as (Total RNA−Free RNA)/Total RNA. LNP samples are diluted appropriately with 1× TE buffer containing 0.2% Triton-X 100 to determine total RNA or 1× TE buffer to determine free RNA. Standard curves are prepared by utilizing the starting RNA solution used to make the compositions and diluted in 1× TE buffer+/−0.2% Triton-X 100. Diluted RiboGreen® dye (according to the manufacturer's instructions) is then added to each of the standards and samples and allowed to incubate for approximately 10 minutes at room temperature, in the absence of light. A SpectraMax M5 Microplate Reader (Molecular Devices) is used to read the samples with excitation, auto cutoff and emission wavelengths set to 488 nm, 515 nm, and 525 nm respectively. Total RNA and free RNA are determined from the appropriate standard curves.
Encapsulation efficiency is calculated as (Total RNA−Free RNA)/Total RNA. The same procedure may be used for determining the encapsulation efficiency of a DNA-based cargo component. For single-strand DNA Oligreen Dye may be used, and for double-strand DNA, Picogreen Dye.

[4] = system: TTR; assay: TTR editing in mouse liver by NGS after i.v. LNP delivery of Cas9 mRNA and sgRNA; assay type: in vivo; conditions: CD-1 female mice
Experimental: Preparations of various LNP compositions were prepared with amine lipids. In assays for percent liver editing in mice, Cas9 mRNA and chemically modified sgRNA were formulated in LNPs, at either a 1:1 w/w ratio or a 1:2 w/w ratio. LNPs are formulated with a composition of a given ionizable lipid (e.g. an amine lipid), DSPC, cholesterol, and PEG-2k-DMG, with a 6.0 N:P ratio.
(§1) CD-1 female mice, ranging from 6-10 weeks of age were used in each study. Animals were weighed and grouped according to body weight for preparing dosing solutions based on group average weight. LNPs were dosed via the lateral tail vein in a volume of 0.2 mL per animal (approximately 10 mL per kilogram body weight). The animals were periodically observed post dose for adverse effects for at least 24 hours post dose. Animals were euthanized at 6 or 7 days by exsanguination via cardiac puncture under isoflurane anesthesia. Blood was collected into serum separator tubes or into tubes containing buffered sodium citrate for plasma as described herein. For studies involving in vivo editing, liver tissue was collected from each animal for DNA extraction and analysis.
Cohorts of mice were measured for liver editing by Next-Generation Sequencing (NGS).
In brief, to quantitatively determine the efficiency of editing at the target location in the genome, genomic DNA was isolated and deep sequencing was utilized to identify the presence of insertions and deletions introduced by gene editing.
PCR primers were designed around the target site (e.g., B2M), and the genomic area of interest was amplified. Additional PCR was performed according to the manufacturer's protocols (Illumina) to add the necessary chemistry for sequencing. The amplicons were sequenced on an Illumina MiSeq instrument. The reads were aligned to the […] after eliminating those having low quality scores. The resulting files containing the reads were mapped to the reference genome (BAM files), where reads that overlapped the target region of interest were selected and the number of wild type reads versus the number of reads which contain an insertion, substitution, or deletion was calculated.
The editing percentage (e.g., the “editing efficiency” or “percent editing”) is defined as the total number of sequence reads with insertions or deletions over the total number of sequence reads, including wild type.
CD-1 female mice were dosed i.v. at 0.1 mpk or 0.3 mpk. At 6 days post-dose, animals were sacrificed. For animals dosed with G282 targeting TTR, blood and the liver were collected and serum TTR and editing were measured. For animals dosed with G650 targeting B2M, liver was collected and editing was measured.

[5] = system: TTR; assay: Transthyretin (TTR) ELISA analysis of mouse serum after LNP dosing; assay type: in vivo; conditions: for inhibition in vivo at 0.03 mg/kg / response vs control in vivo at 0.1 mg/kg: Mus musculus, iv; for inhibition in vivo at 0.03 mg/kg: 168 h, read-out: Serum TTR (% KD); for response vs control in vivo at 0.1 mg/kg: 144 h, read-out: Serum TTR % TSS
Experimental: as §1
CD-1 female mice were dosed i.v. at 0.1 mpk or 0.3 mpk. […] For animals dosed with G282 targeting TTR, blood and the liver were collected and serum TTR and editing were measured. For animals dosed with G650 targeting B2M, liver was collected and editing was measured.
Blood was collected and the serum was isolated as indicated. The total mouse TTR serum levels were determined using a Mouse Prealbumin (Transthyretin) ELISA Kit (Aviva Systems Biology, Cat. OKIA00111). Briefly, sera were serial diluted with kit sample diluent to a final dilution of 10,000-fold for 0.1 mpk dose and 2,500-fold for 0.3 mpk. This diluted sample was then added to the ELISA plates and the assay was then carried out according to directions.

[6] = Table 26, Example 64: LNP, G282 1:1
[7] = Table 26, Example 64: LNP, G282 (TTR) 1:1 w/w
[8] = Example 64: Dose 0.03 mpk (table) i.v., 7 days post-dose, G282 1:1
[9] = Table 14, Example 58: LNP, G282 1:1
[10] = Table 14, Example 58: LNP, G282 (TTR) 1:1 w/w
[11] = Example 58: 0.1 mpk i.v., 6 days post-dose, G282 1:1
[12] = Table 18, Example 60: LNP, G502 1:2
[13] = Example 60: 0.1 mpk i.v., 6 days post-dose, G502 1:2

Row | SMILES | pKa [1] | Num Ave Size (nm) [2, 9] [nm] | PDI [2, 9] | Z-Ave Size (nm) [2, 9] [nm] | Encapsulation (%) [3, 10] [%] | Num Ave Size (nm) [2, 6] [nm] | PDI [2, 6] | Z-Ave Size (nm) [2, 6] [nm] | Encapsulation (%) [3, 7] [%] | Editing Mean % Indel [4, 8] [%] | Serum TTR [5, 8] [µg/mL] | inhibition in vivo at 0.03 mg/kg [5, 8] [%] | Editing Mean % Indel [4, 11] [%] | Serum TTR [5, 11] [µg/mL] | response vs control in vivo at 0.1 mg/kg [5, 11] [%] | other results
1 | CCCCCCCCCOC(=O)CCCCCCCN(CCCCCCC(OCCCCCCCC)OCCCCCCCC)CCNC(=O)OC [Compound 44, nonyl 8-((7,7-bis(octyloxy)heptyl)(2-((methoxycarbonyl)amino)ethyl)amino)octanoate] | 5.62 |  |  |  |  | 92 | 0.25 | 185 | 59 | 7.9 | 603.9 | -5.5 |  |  |  | 
2 | CCCCCCCCCOC(=O)CCCCCCCN(CCCCCCC(OCCCCCCCC)OCCCCCCCC)CCCOC(=O)NC [Compound 40, nonyl 8-((7,7-bis(octyloxy)heptyl)(3-((methylcarbamoyl)oxy)propyl)amino)octanoate] | 5.71 |  |  |  |  | 64 | 0.06 | 83 | 96 | 27.5 | 417.0 | 27.2 |  |  |  | 
3 | CCCCCCCCCOC(=O)CCCCCCCN(CCCCCCC(OCCCCCCCC)OCCCCCCCC)CCCNC(=O)NC [Compound 46, nonyl 8-((7,7-bis(octyloxy)heptyl)(3-(3-methylureido)propyl)amino)octanoate] | 7.64 |  |  |  |  | 86 | 0.03 | 104 | 98 | 8.7 | 514.6 | 10.1 |  |  |  | 

The next lines start with results.

Row | pKa [1] | Num Ave Size (nm) [2, 9] [nm] | PDI [2, 9] | Z-Ave Size (nm) [2, 9] [nm] | Encapsulation (%) [3, 10] [%] | SMILES | Num Ave Size (nm) [2, 6] [nm] | PDI [2, 6] | Z-Ave Size (nm) [2, 6] [nm] | Encapsulation (%) [3, 7] [%] | Editing Mean % Indel [4, 8] [%] | Serum TTR [5, 8] [µg/mL] | inhibition in vivo at 0.03 mg/kg [5, 8] [%] | Editing Mean % Indel [4, 11] [%] | Serum TTR [5, 11] [µg/mL] | response vs control in vivo at 0.1 mg/kg [5, 11] [%] | other results
4 | 6.34 | 66.66 | 0.132 | 109.5 | 78 | CCCCCC/C=C\COC(=O)CCCCCCCN(CCO)CCCCCCCC(OCCCCCCCC)OCCCCCCCC [Compound 16, (Z)-non-2-en-1-yl 8-((8,8-bis(octyloxy)octyl)(2-hydroxyethyl)amino)octanoate] |  |  |  |  |  |  |  | 35.2 | 516 | 52 | 
5 | 6.35 | 63.34 | 0.04 | 77.34 | 98 | CCCCCCCCCCCOC(=O)CCCCCN(CCO)CCCCCCCC(OCCCCCCCC)OCCCCCCCC [Compound 13, undecyl 6-((8,8-bis(octyloxy)octyl)(2-hydroxyethyl)amino)hexanoate] |  |  |  |  |  |  |  | 22.6 | 703 | 71 | 
6 | 6.18 |  |  |  |  | CCCCCCCCCCC(=O)OCCCCCCN(CCO)CCCCCCCC(OCCCCCCCC)OCCCCCCCC [Compound 22, 6-((8,8-bis(octyloxy)octyl)(2-hydroxyethyl)amino)hexyl undecanoate] |  |  |  |  |  |  |  |  |  |  | Num Ave Size (nm) [2, 12]: 66.68 nm; PDI [2, 12]: 0.029; Z-Ave Size (nm) [2, 12]: 82.91 nm; Encapsulation (%) ([3]; Table 18, Example 60: LNP, G502 (TTR), sgRNA:Cas9 mRNA 1:2 w/w): 98%; Editing Mean % Indel [4, 13]: 45.6%; Serum TTR [5, 13]: 410 µg/mL; response vs control in vivo at 0.1 mg/kg [5, 13]: 29%
7 | 6.35 | 54.58 | 0.137 | 89.3 | 86 | CCCCCCCCOC(CCCCCCCN(CCO)CCCCCCCCCC(=O)OCCCCCCC)OCCCCCCCC [Compound 11, heptyl 10-((8,8-bis(octyloxy)octyl)(2-hydroxyethyl)amino)decanoate] |  |  |  |  |  |  |  | 29.4 | 553 | 56 | 

From US20260225997A1, “IONIZABLE AMINE LIPIDS” (Intellia Therapeutics, Inc., priority 2018, published 2026)
